Assay: xn = mol fraction of the nth substance listed

CCN(CC)c1ccccc1 + CCCCCCCO
viscosity [mPa·s], 100 kPa
Conditions	x1 = 0.1216	x1 = 0.2426	x1 = 0.3349	x1 = 0.4641	x1 = 0.5612	x1 = 0.6524	x1 = 0.7356	x1 = 0.8144	x1 = 0.9141
303.15 K	4.25	3.593	3.178	2.706	2.425	2.21	2.049	1.923	1.792
308.15 K	3.658	3.095	2.735	2.323	2.079	1.895	1.763	1.665	1.577
313.15 K	3.122	2.622	2.308	1.96	1.76	1.617	1.52	1.455	1.405
318.15 K	2.671	2.129	1.826	1.535	1.398	1.319	1.278	1.257	1.243

CCCCCCCCCCCC(=O)OCC + CCCCCCO
viscosity [mPa·s], 101.33 kPa
Conditions	293.15 K	298.15 K	303.15 K	308.15 K	313.15 K	318.15 K	323.15 K
x2 = 0.1	3.266	2.909	2.623	2.367	2.136	1.965	1.778
x2 = 0.2	3.214	2.867	2.596	2.334	2.09	1.918	1.731
x2 = 0.2999	3.216	2.872	2.575	2.309	2.095	1.896	1.724
x2 = 0.4	3.215	2.868	2.57	2.296	2.067	1.883	1.695
x2 = 0.4999	–	2.906	2.597	2.316	2.073	1.896	1.7
x2 = 0.5	3.25	–	–	–	–	–	–
x2 = 0.5999	3.374	–	–	–	–	–	–
x2 = 0.6	–	3.01	2.673	2.379	2.13	1.942	1.725
x2 = 0.7	3.486	3.101	2.771	2.459	2.186	1.965	1.761
x2 = 0.8	3.852	3.366	2.979	2.621	2.316	2.079	1.848
x2 = 0.8999	4.374	–	–	–	–	–	–
x2 = 0.9	–	3.769	3.316	2.902	2.568	2.261	1.972
